Data as given in patent US20050003378A1, “Inhibitor of demethylase, antitumorigenic agent, and an in vitro assay for demethylase inhibitors” (priority 2002, published 2005).

Assays:
[1] = system: A549 human lung carcinoma cells; assay: Soft agar assay (anchorage independent growth), A549 cells; format: cell-based; settings: single 24 hour treatment at 4 mM, colonies counted 21 days after plating
Protocol: (§1) For analysis of growth in soft agar, 3 ×10^3 cells were seeded in triplicate onto a six well dish in 4 ml of complete medium containing 0.33% agar solution at 37° C. (34). Cells were fed with 2 ml of medium twice weekly. The assay was performed in triplicate, and colonies were counted 21 days after plating for A549 cells, and 7 days after plating for HEK 293 cells.
(§2) AdoMetinhibits the tumorigenic properties of two different transformed cells lines, A549 human lung carcinoma cells and HEK 293 human embryonal kidney cells—It is well documented that a correlation exists between reduced intracellular AdoMet (either as a consequence of decreased folate intake or pharmacological intervention) and an increase in cell proliferation and tumorigenesis (2, 19). […] We therefore decided to test whether treatment with AdoMet could inhibit the transformation potential of HEK 293 cells, which were shown here to be responsive to AdoMet inhibition of demethylase. We also tested AdoMet effects on the transformed state of A549, a human lung non-small cell carcinoma cell line, to exclude the possibility that AdoMet effects are an idiosyncrasy of HEK 293 cells. Cells were treated for 24 hours with either AdoMet or AdoHcy at a concentration of 4 mM. An equal number of living cells were seeded onto soft agar to test their anchorage independent growth, an indicator of tumorigenesis in vitro. […]

[2] = target: T1, human MBD2/dMTase (Homo sapiens, UniProt Q9UBB5); assay: In vitro demethylation assay with recombinant MBD2/dMTase; format: biochemical; settings: for conversion of methyl-dCMP to dCMP by MBD2/dMTase: 24 hours at 37° C.
T1 construct: made in house; host or cells: SF9 insect cells (baculovirus, transfer vector pBlueBacHis2 C)
T1 sequence (Q9UBB5 150-411 limits assumed): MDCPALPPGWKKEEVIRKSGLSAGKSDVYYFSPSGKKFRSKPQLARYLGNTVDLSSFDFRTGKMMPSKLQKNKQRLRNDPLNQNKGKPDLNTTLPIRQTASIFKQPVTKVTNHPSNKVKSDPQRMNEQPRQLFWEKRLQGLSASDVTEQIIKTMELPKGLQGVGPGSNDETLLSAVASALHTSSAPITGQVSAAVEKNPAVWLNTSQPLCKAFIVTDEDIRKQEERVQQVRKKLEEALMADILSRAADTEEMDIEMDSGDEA
Protocol: AdoMet preparations for in vitro studies—AdoMet was prepared as a 50 mM solution in distilled water either by freeze drying a 32 mM AdoMet solution, which contained 10% ethanol and 5 mM sulfuric acid (New England Biolabs) immediately before use or by dissolving lyophilized powder (SIGMA) in distilled water. To control for possible nonspecific effects of remnants of the AdoMet storage buffer we freeze dried a solution of 5 mM sulfuric acid and 10% ethanol under the same conditions as done with the AdoMet solution and added distilled water after lyophilizing. AdoHcy was purchased from SIGMA and dissolved in distilled water at a 50 mM concentration.
Purification of recombinant MBD2/dMTase from SF9 cells—A fragment containing human MBD2/dMTase was excised from pCR2.1-dMTase (10) with BamHI and XhoI and transferred to the Baculovirus expression transfer vector pBlueBacHis2 C (Invitrogen). PBlueBacHis2 C-MBD2/dMTase and Bac-N-Blue viral DNA were co-transfected into the SF9 insect cell line, and recombinant viruses were isolated, identified and amplified according to the manufacturer's protocol (Invitrogen) with no modifications. High titer P3 viral stocks were used for infections. Insect SF9 cells were cultured in spinner flasks to a density of 2.5×10^6 cells/ml in Grace's Insect Cell Culture Medium Supplemented (1×) from Life Technologies. For infection, 5×10^6 cells were plated in 10 cm tissue culture plates (Sarstedt) and allowed to settle and attach for 30 minutes. The culture medium was removed and was replaced with 10 ml of the same medium containing MBD2/dMTase virus at a multiplicity of infection of 10. The cells were cultured with the virus for 5 days at 27° C. and were then harvested by scraping in cold phosphate buffered saline. Cell pellets from 10 plates were frozen and kept at −70° C. until they were used for enzyme purification. Frozen pellets were thawed in 5 ml of lysis buffer (10 mM Tris-HCl pH 8.0, 5 mM MgCl2, 500 mM NaCl, 0.05% Tween 20, 10% glycerol and 10 mM imidazole) containing 1 μg/ml of the following protease inhibitors: aprotinin, leupeptin and pefablock. Protease inhibitors were added to all the solutions used in the purification. The homogenates were subjected to two cycles of freezing and thawing (5 minutes per step). DNA in the homogenate was sheered by passing through a 18.5 gauge needle 10 times. The extracts were then subjected to 15 cycles of sonication (10 seconds burst, 10 seconds gap per cycle at 20% of maximal output). The extracts were centrifuged at 10,000×g for 35 minutes. The supernatant was transferred into a fresh tube and was recentrifuged for additional 25 minutes at 15,000×g. The extract was filtered through a 5 micron filter to remove any particulate matter and the buffer was exchanged on a PD-10 buffer exchange column (Amersham Pharmacia) with buffer L (10 mM Tris-HCl pH 8.0, 10 mM MgCl2) containing 50 mM NaCl. Recombinant MBD2/dMTase was partially purified by Q-sepharose (Pharmacia) ion exchange chromatography. Q-sepharose beads (1 ml of swollen beads) were washed extensively and preequilibrated with buffer L containing 50 mM NaCl and divided into 3 equal aliquots. The cell extracts were sequentially bound three times to the 3 aliquots of Q-sepharose beads in batch in 15 ml tubes by shaking gently on a Nutator for 45 minutes at 4° C. […]

[3] = system: CMV-GFP expression in HEK 293 cells; assay: GFP expression from transfected CMV-GFP in HEK 293 cells (Western blot); settings: for TSA induced GFP expression of methylated CMV-GFP: 0.3 μM TSA, increasing amounts of compound (mM)
[4] = system: HEK 293 human embryonal kidney cells; assay: Soft agar assay (anchorage independent growth), HEK 293 cells; format: cell-based; settings: single 24 hour treatment at 4 mM, colonies counted 7 days after plating
Protocol: as §1, §2

[5] = system: endogenous demethylase activity; assay: Active demethylation of in vitro methylated CMV-GFP transiently transfected into HEK 293 cells (HpaII/MspI digestion, Southern blot); settings: for percentage of methylated GFP remaining (inhibition of TSA induced active demethylation of methylated CMV-GFP): 0.3 μM TSA, 2, 4, 8 mM compound, harvested 72 hours post transfection

Compound	colony formation in soft agar (anchorage independent growth) [1]	effect of AdoHcy on inhibition of the demethylase reaction by AdoMet (competition experiment) ([2]; increasing AdoHcy in presence of 10 mM AdoMet, up to tenfold concentration excess of AdoHcy)	inhibition of demethylation activity of MBD2/dMTase ([2]; increasing concentrations of AdoHcy)	TSA induced GFP expression of methylated CMV-GFP ([3]; methylated CMV-GFP)	colony formation in soft agar (anchorage independent growth) [4]	percentage of methylated GFP remaining (inhibition of TSA induced active demethylation of methylated CMV-GFP) ([5]; methylated CMV-GFP)	conversion of methyl-dCMP to dCMP by MBD2/dMTase ([2]; 2 mM AdoMet)	conversion of methyl-dCMP to dCMP by MBD2/dMTase ([2]; AdoMet concentrations higher than 4 mM)	inhibition of demethylation attained ([2]; maximum inhibition on dose curve, average of 3 independent experiments) [%]	induction of non-methylated GFP by TSA ([3]; unmethylated CMV-GFP, 0.3 μM TSA plus AdoMet)	de novo methylation of unmethylated CMV-GFP ([5]; unmethylated CMV-GFP, 8 mM AdoMet)	GFP expression of methylated CMV-GFP ([3]; methylated CMV-GFP, TSA alone)	demethylation of methylated CMV-GFP by endogenous demethylase activity ([5]; methylated CMV-GFP, 0.3 μM TSA alone)
Nc1ncnc2c1ncn2[C@@H]1O[C@H](CSCC[C@H](N)C(=O)O)[C@@H](O)[C@H]1O [AdoHcy, S-adenosylhomocysteine]	does not inhibit	does not diminish inhibition	no inhibition	no significant effect	does not inhibit	insignificant effect	–	–	–	–	–	–	–
C[S+](CC[C@H](N)C(=O)[O-])C[C@H]1O[C@@H](n2cnc3c(N)ncnc32)[C@H](O)[C@@H]1O (some centres unmarked) [AdoMet, S-Adenosylmethionine]	no colonies are formed	–	–	decreased in a dose dependent fashion	only a minimal number of colonies	increases in a dose dependent manner	greatly reduced	abolished completely	100	no significant effect	does not get de novo methylated	–	–
CC(/C=C/C(=O)NO)=C\[C@@H](C)C(=O)c1ccc(N(C)C)cc1 [TSA, Trichostatin A]	–	–	–	–	–	–	–	–	–	–	–	dramatic induction	nearly complete demethylation
